What all share (format): biochemical
Common to all, as to conditions: 1 μM inhibitor concentration

The target in one test is MKK1 (Homo sapiens (Human), UniProt Q02750). Briefly: MKK1 kinase selectivity assay. The procedure: After incubating at room temperature for 30 min, 5 μl from the first reaction is pipetted into 20 μl of the second reaction mix containing (final concentration) 25 mM Tris pH 7.5, 0.1 mM EGTA, 0.1 mM Na3VO4, 0.66 mg/ml myelin basic protein (MBP), 10 mM magnesium acetate and 0.05 mM [33P-g-ATP] (500-1000 cpm/pmole) and incubated for 30 min at room temperature. Assays are stopped by addition of 5 μl of 0.5 M (3%) orthophosphoric acid and then harvested onto P81 Unifilter plates with a wash buffer of 50 mM orthophosphoric acid.

In a further test the target is PDK1 (Homo sapiens (Human), UniProt O15530). Briefly: PDK1 kinase selectivity assay. The procedure:
PDK1 (5-20 mU diluted in 50 mM Tris pH 7.5, 0.05% b-mercaptoethanol, 1 mg/ml BSA) is assayed against PDKtide ([…]-[…]) in a final volume of 25.5 μl containing 50 mM Tris pH 7.5, 0.05% b-mercaptoethanol, 100 μM substrate peptide, 10 mM magnesium acetate and 0.02 mM [33P-g-ATP](50-1000 cpm/pmole) and incubated for 30 min at room temperature Assays are stopped by addition of 5 μl of 0.5 M (3%) orthophosphoric acid and then harvested onto P81 Unifilter plates with a wash buffer of 50 mM orthophosphoric acid.

For another test, the target named is PRK2 (Homo sapiens (Human), UniProt Q16513). The test can be described thus: PRK2 kinase selectivity assay. As to the method: 5-20 mU of PRK2 (diluted in 50 mM Tris (pH 7.5), 0.1 mM EGTA, 1 mg/ml BSA, 0.1%, b-Mercaptoethanol) is assayed against Long S6 peptide ([…]) in a final volume of 25.5 μl containing 50 mM Tris (pH 7.5), 0.1 mM EGTA, 0.1%, b-Mercaptoethanol, 30 μM Long S6 peptide, 10 mM magnesium acetate and 0.005 mM [33P-g-ATP](500-1000 cpm/pmole) and incubated for 30 mins at room temperature. Assays are stopped by addition of 5 μl of 0.5M (3%) orthophosphoric acid. Assays are harvested onto P81 Unifilter plates using a wash buffer of 50 mM orthophosphoric acid.

A further test has as its target PKD1 (Homo sapiens (Human), UniProt Q15139). The test can be described thus: PKD1 kinase selectivity assay. As to the method: PKD1 (5-20 mU diluted in 50 mM Tris pH 7.5, 0.1 mM EGTA, 0.1% b-mercaptoethanol, 1 mg/ml BSA) is assayed substrate peptide ([…]) in a final volume of 25.5 μl containing 50 mM Tris pH 7.5, 0.05% b-mercaptoethanol, 30 μM substrate peptide, 10 mM magnesium acetate and 0.05 mM [33P-g-ATP] (50-1000 cpm/pmole) and incubated for 30 min at room temperature. Assays are stopped by addition of 5 μl of 0.5 M (3%) orthophosphoric acid and then harvested onto P81 Unifilter plates with a wash buffer of 50 mM orthophosphoric acid.

The next test has as its target SRPK1 (Homo sapiens (Human), UniProt Q96SB4). The test can be described thus: SRPK1 kinase selectivity assay. The procedure: 5-20 mU of SRPK1 (diluted in 50 mM Tris (pH 7.5), 0.1 mM EGTA, 1 mg/ml BSA, 0.1%, b-Mercaptoethanol) is assayed against substrate peptide ([…]) in a final volume of […] containing 50 mM Tris (pH 7.5), 0.1 mM EGTA, 0.1%, b-Mercaptoethanol, 300 μM substrate peptide, 10 mM magnesium acetate and 0.05 mM [33P-g-ATP](500-1000 cpm/pmole) and incubated for 30 mins at room temperature. Assays are stopped by addition of 5 μl of 0.5M (3%) orthophosphoric acid. Assays are harvested onto P81 Unifilter plates using a wash buffer of 50 mM orthophosphoric acid.

A further test concerns the target EF2K (Homo sapiens (Human), UniProt O00418). The test can be described thus: EF2K kinase selectivity assay. As to the method: EF2K (5-20 mU diluted in 50 mM Hepes pH 6.6, 0.1% b-mercaptoethanol, 1 mg/ml BSA) is assayed against a substrate peptide ([…]) in a final volume of 25.5 μl containing 50 mM Hepes pH 6.6, 0.2 mM CaCl2, 0.3 μM Calmodulin, 0.05% b-mercaptoethanol, 300 μM substrate peptide, 10 mM magnesium acetate and 0.005 mM [33P-g-ATP] (50-1000 cpm/pmole) and incubated for 30 min at room temperature. Assays are stopped by addition of 5 μl of 0.5 M (3%) orthophosphoric acid and then harvested onto P81 Unifilter plates with a wash buffer of 50 mM orthophosphoric acid.

The target of the next test is HIPK2 (Homo sapiens (Human), UniProt Q9H2X6). Briefly: HIPK2 kinase selectivity assay. The procedure:
5-20 mU of HIPK2 (diluted in 50 mM Tris (pH 7.5), […] EGTA, 1 mg/ml BSA, 0.1%, b-Mercaptoethanol) is assayed against MBP in a final volume of 25.5 μl containing 50 mM Tris (pH 7.5), 0.1 mM EGTA, 0.1%, b-Mercaptoethanol, 0.33 mg/ml MBP, 10 mM magnesium acetate and 0.005 mM [33P-g-ATP](500-1000 cpm/pmole) and incubated for 30 mins at room temperature. Assays are stopped by addition of 5 μl of 0.5M (3%) orthophosphoric acid. Assays are harvested onto P81 Unifilter plates using a wash buffer of 50 mM orthophosphoric acid.

The next test has as its target ULK1 (Homo sapiens (Human), UniProt O75385). Briefly: ULK1 kinase selectivity assay.
For a further test, the target named is CSK (Homo sapiens (Human), UniProt P41240). Briefly: CSK kinase selectivity assay. The procedure:
CSK (5-20 mU diluted in 20 mM MOPS pH7.5, 1 mM EDTA, 0.01% Brij35, 5% glycerol, 0.1% b-mercaptoethanol, 1 mg/ml BSA) is assayed against Cdc2 peptide ([…]) in a final volume of 25.5 μl containing 8 mM MOPS pH7.0, 0.2 mM EDTA, Cdc2 peptide (0.25 mM), 10 mM magnesium acetate and 0.02 mM [33P-g-ATP](500-1000 cpm/pmole) and incubated for 30 min at room temperature Assays are stopped by addition of 5 μl of 0.5 M (3%) orthophosphoric acid and then harvested onto P81 Unifilter plates with a wash buffer of 50 mM orthophosphoric acid.

Experimental findings from patent publication US10918645B2 (LIFEARC, priority 2016, dated 2021) are described below.

Sequence of PDK1 (O15530 whole entry): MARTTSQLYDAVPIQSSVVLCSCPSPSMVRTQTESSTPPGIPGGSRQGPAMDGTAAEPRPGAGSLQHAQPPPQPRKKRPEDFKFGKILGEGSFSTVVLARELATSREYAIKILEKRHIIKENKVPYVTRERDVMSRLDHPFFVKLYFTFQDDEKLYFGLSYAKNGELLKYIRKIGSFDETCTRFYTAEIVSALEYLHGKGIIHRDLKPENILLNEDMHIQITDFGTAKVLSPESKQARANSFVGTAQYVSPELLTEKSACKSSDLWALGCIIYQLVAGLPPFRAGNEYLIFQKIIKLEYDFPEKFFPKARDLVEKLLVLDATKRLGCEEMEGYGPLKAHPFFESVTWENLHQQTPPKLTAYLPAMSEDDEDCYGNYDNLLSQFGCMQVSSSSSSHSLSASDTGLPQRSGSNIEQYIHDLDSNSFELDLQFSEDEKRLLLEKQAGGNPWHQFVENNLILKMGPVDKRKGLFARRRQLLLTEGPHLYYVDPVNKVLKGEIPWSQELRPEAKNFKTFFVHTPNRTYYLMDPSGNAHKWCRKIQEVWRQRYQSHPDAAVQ
Sequence of HIPK2 (Q9H2X6 whole entry, species assumed): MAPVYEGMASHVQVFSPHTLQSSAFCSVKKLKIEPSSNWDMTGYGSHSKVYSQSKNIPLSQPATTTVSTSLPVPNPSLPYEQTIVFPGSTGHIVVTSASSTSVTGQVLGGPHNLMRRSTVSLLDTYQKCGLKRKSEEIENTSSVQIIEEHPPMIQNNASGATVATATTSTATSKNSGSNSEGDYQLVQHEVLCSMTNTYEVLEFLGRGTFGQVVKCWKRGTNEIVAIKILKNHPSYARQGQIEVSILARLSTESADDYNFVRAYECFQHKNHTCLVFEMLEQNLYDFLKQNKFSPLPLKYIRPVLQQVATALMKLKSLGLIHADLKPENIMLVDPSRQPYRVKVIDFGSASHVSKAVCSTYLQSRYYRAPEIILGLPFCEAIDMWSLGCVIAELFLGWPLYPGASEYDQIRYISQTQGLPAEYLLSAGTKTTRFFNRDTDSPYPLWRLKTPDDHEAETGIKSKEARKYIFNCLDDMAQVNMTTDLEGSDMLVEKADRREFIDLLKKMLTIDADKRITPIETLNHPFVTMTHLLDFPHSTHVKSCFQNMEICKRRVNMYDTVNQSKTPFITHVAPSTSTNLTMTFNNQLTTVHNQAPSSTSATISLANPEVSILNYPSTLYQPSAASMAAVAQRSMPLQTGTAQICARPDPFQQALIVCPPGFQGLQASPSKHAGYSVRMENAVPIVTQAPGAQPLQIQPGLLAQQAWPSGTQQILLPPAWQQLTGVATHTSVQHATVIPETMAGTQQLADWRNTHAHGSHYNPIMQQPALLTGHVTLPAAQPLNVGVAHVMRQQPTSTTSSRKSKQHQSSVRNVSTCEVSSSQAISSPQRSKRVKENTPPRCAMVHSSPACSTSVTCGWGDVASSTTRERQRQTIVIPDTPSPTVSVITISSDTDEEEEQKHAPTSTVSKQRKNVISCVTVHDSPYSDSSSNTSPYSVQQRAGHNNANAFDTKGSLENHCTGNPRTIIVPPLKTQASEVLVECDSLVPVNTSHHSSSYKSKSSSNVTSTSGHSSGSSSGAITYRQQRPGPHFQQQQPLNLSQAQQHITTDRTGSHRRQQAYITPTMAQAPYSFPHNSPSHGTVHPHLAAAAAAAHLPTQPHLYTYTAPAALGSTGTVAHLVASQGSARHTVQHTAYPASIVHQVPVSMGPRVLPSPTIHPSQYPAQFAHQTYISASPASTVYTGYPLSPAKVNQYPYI
Sequence of CSK (P41240 whole entry, species assumed): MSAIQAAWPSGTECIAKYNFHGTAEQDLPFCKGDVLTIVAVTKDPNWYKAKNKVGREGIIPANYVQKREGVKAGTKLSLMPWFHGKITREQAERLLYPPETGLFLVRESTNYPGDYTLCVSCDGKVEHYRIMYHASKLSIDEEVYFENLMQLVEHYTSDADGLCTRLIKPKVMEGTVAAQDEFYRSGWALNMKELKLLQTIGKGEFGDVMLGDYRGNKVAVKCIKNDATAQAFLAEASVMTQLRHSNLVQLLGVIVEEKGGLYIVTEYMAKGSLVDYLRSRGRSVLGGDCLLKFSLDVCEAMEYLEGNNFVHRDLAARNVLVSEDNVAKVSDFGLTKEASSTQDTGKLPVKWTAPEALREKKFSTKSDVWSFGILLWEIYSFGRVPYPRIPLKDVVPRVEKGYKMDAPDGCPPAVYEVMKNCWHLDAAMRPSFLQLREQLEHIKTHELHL
Sequence of PKD1 (Q15139 whole entry): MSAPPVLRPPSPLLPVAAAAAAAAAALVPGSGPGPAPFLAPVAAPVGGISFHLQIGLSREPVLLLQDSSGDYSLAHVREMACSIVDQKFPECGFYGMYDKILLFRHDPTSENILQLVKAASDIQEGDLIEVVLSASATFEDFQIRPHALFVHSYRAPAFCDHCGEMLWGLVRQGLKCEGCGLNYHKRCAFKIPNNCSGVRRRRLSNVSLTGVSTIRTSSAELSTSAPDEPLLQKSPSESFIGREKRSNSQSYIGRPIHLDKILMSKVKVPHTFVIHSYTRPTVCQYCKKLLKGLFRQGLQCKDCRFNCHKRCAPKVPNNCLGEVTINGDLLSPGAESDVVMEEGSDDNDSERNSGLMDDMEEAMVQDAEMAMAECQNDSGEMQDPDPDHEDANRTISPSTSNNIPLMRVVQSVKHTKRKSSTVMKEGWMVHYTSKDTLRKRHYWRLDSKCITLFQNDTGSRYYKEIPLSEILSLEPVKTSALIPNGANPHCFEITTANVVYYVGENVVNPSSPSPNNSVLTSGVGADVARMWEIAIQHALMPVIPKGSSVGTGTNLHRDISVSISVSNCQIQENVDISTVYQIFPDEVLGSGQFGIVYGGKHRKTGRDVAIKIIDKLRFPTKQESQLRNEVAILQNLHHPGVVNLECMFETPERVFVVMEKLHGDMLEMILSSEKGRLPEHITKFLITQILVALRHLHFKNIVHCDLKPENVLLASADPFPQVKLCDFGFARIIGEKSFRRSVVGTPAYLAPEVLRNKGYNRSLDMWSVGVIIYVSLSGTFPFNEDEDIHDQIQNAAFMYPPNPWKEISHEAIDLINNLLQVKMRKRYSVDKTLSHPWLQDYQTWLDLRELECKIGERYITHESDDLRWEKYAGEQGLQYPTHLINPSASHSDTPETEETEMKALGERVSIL
Sequence of SRPK1 (Q96SB4 whole entry, species assumed): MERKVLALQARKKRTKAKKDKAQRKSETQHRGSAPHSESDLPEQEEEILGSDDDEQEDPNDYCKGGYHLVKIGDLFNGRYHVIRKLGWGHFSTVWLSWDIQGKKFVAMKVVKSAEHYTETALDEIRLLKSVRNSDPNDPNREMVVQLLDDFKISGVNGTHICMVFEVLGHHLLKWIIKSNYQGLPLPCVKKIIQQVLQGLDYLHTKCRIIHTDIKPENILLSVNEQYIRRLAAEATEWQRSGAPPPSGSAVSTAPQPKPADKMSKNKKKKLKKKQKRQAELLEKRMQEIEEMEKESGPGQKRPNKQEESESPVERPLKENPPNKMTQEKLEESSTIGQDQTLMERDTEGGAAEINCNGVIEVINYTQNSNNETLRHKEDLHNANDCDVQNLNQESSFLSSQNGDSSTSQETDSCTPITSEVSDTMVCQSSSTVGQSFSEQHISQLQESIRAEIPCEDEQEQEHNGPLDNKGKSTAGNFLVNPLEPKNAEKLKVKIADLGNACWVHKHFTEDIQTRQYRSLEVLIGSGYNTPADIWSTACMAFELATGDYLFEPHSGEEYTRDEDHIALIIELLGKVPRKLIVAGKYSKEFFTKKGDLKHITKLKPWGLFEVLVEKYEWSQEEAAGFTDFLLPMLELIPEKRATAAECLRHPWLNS
Sequence of ULK1 (O75385 whole entry, species assumed): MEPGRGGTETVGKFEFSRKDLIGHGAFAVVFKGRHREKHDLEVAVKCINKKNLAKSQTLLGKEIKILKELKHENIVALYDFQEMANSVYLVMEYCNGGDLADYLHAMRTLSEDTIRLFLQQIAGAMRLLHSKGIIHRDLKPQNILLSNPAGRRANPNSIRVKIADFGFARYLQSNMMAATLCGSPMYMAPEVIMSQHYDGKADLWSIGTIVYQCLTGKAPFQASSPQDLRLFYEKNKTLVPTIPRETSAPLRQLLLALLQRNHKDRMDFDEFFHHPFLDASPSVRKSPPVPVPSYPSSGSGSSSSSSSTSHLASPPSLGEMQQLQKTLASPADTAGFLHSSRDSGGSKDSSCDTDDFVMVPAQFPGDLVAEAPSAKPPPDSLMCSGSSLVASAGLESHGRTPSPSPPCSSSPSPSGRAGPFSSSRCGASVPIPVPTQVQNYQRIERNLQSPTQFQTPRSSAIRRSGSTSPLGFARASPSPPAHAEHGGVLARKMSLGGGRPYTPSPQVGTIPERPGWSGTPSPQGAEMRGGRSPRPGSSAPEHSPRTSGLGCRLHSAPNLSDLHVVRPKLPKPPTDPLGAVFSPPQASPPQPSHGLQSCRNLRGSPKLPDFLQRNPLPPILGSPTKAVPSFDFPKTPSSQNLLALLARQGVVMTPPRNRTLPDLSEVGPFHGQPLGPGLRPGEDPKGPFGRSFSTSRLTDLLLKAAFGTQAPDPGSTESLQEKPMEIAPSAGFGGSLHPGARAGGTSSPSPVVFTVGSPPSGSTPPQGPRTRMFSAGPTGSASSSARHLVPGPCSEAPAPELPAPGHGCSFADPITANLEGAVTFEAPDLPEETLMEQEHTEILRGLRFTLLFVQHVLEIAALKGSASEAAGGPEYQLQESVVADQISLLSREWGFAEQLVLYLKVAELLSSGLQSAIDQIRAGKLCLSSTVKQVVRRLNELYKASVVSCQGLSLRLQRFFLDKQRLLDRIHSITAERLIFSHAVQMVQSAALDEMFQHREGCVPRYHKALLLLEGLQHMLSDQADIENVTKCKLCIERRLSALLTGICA

With `c1cc2[nH]nc3c2c(n1)N(C1CCC1)CCC3` [Example 22, 6-cyclobutyl-6,7,8,9-tetrahydro-2H-1,2,5,6-tetraazabenzo[cd]azulene], the “percentage inhibition of MKK1” value at MKK1 is 15 percentage. Further, the “percentage inhibition of PDK1” value on PDK1 was 7 percentage. The “percentage inhibition of PRK2” value at PRK2 was 2 percentage. Also, on PKD1, the “percentage inhibition of PKD1” value is 20 percentage. Further, on SRPK1, the “percentage inhibition of SRPK1” value was found to be 0 percentage. On EF2K, the “percentage inhibition of EF2K” value was determined as 0 percentage. The “percentage inhibition of HIPK2” value at HIPK2 is listed as 11 percentage. Also, the “percentage inhibition of ULK1” value on ULK1 is on record as 14 percentage. Moreover, the “percentage inhibition of CSK” value on CSK is given as 1 percentage.

For `c1cc2[nH]nc3c2c(n1)N(C1CCCC1)CCC3` [Example 23, 6-cyclopentyl-6,7,8,9-tetrahydro-2H-1,2,5,6-tetraazabenzo[cd]azulene], the “percentage inhibition of MKK1” value on MKK1 is 0 percentage. The “percentage inhibition of PDK1” value at PDK1 came out at 0 percentage. On PRK2, the “percentage inhibition of PRK2” value is listed as 0 percentage. In addition, the “percentage inhibition of PKD1” value on PKD1 amounted to 9 percentage. For the same molecule, the “percentage inhibition of SRPK1” value at SRPK1 was 0 percentage. Moreover, at EF2K, the “percentage inhibition of EF2K” value came to 0 percentage. The “percentage inhibition of HIPK2” value at HIPK2 came out at 3 percentage. In addition, the “percentage inhibition of ULK1” value on ULK1 worked out at 0 percentage. For the same molecule, the “percentage inhibition of CSK” value at CSK came out at 0 percentage.

As to `c1cc2[nH]nc3c2c(n1)N(C1CCOCC1)CCC3` [Example 29, 6-(tetrahydro-2H-pyran-4-yl)-6,7,8,9-tetrahydro-2H-1,2,5,6-tetraazabenzo[cd]azulene], the “percentage inhibition of MKK1” value at MKK1 came to 21 percentage. For the same molecule, at PDK1, the “percentage inhibition of PDK1” value stood at 2 percentage. At PRK2, the “percentage inhibition of PRK2” value stood at 0 percentage. Further, on PKD1, the “percentage inhibition of PKD1” value is listed as 3 percentage. Moreover, the “percentage inhibition of SRPK1” value on SRPK1 amounted to 0 percentage. Besides, at EF2K, the “percentage inhibition of EF2K” value worked out at 0 percentage. Besides, the “percentage inhibition of HIPK2” value at HIPK2 turned out to be 3 percentage. Further, the “percentage inhibition of ULK1” value at ULK1 is 5 percentage. On CSK, the “percentage inhibition of CSK” value is listed as 0 percentage.

For the molecule `CN1CCC(N2Cc3ccccc3-c3n[nH]c4ccnc2c34)CC1` [Example 55], the “percentage inhibition of MKK1” value at MKK1 was determined as 65 percentage. Further, the “percentage inhibition of PDK1” value on PDK1 was found to be 42 percentage. For the same molecule, at PRK2, the “percentage inhibition of PRK2” value was 0 percentage. The “percentage inhibition of PKD1” value on PKD1 was 73 percentage. On SRPK1, the “percentage inhibition of SRPK1” value was determined as 0 percentage. Moreover, the “percentage inhibition of EF2K” value on EF2K was 1 percentage. Besides, the “percentage inhibition of HIPK2” value on HIPK2 stood at 1 percentage. The “percentage inhibition of ULK1” value on ULK1 was 20 percentage. The “percentage inhibition of CSK” value at CSK is recorded as 0 percentage.

Consider `CC(C)n1ncc2c1CN(C1CCN(C)CC1)c1nccc3[nH]nc-2c13` [Example 68], for which the “percentage inhibition of MKK1” value on MKK1 is 31 percentage. Besides, the “percentage inhibition of PDK1” value on PDK1 is 21 percentage. Moreover, at PRK2, the “percentage inhibition of PRK2” value is listed as 8 percentage. Further, on PKD1, the “percentage inhibition of PKD1” value stood at 46 percentage. In addition, on SRPK1, the “percentage inhibition of SRPK1” value was determined as 0 percentage. For the same molecule, the “percentage inhibition of EF2K” value at EF2K came out at 1 percentage. For the same molecule, the “percentage inhibition of HIPK2” value at HIPK2 turned out to be 0 percentage. Also, at ULK1, the “percentage inhibition of ULK1” value is 30 percentage. The “percentage inhibition of CSK” value on CSK is given as 0 percentage.
